According to patent US8772503B2, “Processes for the preparation of deferasirox, and deferasirox polymorphs” (Mapi Pharma Ltd., priority 2009, dated 2014):
One block for each molecule: values may come before it.

Assay: Heating/drying of the solid form, rechecked by XRPD and DSC
Format: physicochemical
Settings: for Solid form after heating (XRPD, DSC): heated to 160° C. under vacuum, 5 minutes
Experimental: Details of XRPD method used in the tests are mentioned below:
Details of DSC method used in the tests are mentioned below:
Heat from 30° C. to 350° C. at 10° C./min
Form II was further dried by heating (e.g. 60° C. for 1 h) after being checked by XRPD, DSC, TGA and NMR. The XRPD and DSC of Form II were rechecked following the dehydration process.
Form III was further dried at 120° C. after being checked by XRPD, DSC, TGA and NMR. The XRPD and DSC were rechecked.
Amorphous deferasirox was heated to 160° C. under vacuum and kept at this temperature for 5 min. The formed crystal was rechecked by XRPD and DSC.

Solid form after heating/drying (XRPD, DSC) (dried at 120° C. for 1 hr, vacuum): converted to Form I
Compound: O=C(O)c1ccc(-n2nc(-c3ccccc3O)nc2-c2ccccc2O)cc1 [Form V, 4-[3,5-Bis(2-hydroxyphenyl)-1H-1,2,4-triazol-1-yl]benzoic acid]

Solid form after heating (XRPD, DSC): converted to Form I
Solid form after heating (XRPD, DSC) (listed as Amorphous): transformed into Form I
Compound: O=C(O)c1ccc(-n2nc(-c3ccccc3O)nc2-c2ccccc2O)cc1 [amorphous deferasirox, 4-[3,5-Bis(2-hydroxyphenyl)-1H-1,2,4-triazol-1-yl]benzoic acid]

Solid form after heating/drying (XRPD, DSC) (heated to 60° C. for 1 hr): converted to Form I
Compound: O=C(O)c1ccc(-n2nc(-c3ccccc3O)nc2-c2ccccc2O)cc1 [Form II, 4-[3,5-Bis(2-hydroxyphenyl)-1H-1,2,4-triazol-1-yl]benzoic acid]
